Paper PMC3374801, “Artemisinin Inhibits Chloroplast Electron Transport Activity: Mode of Action” (PLoS ONE, 2012)
Entries after “also recorded” stand apart in the source; their conditions may differ.

What was measured:
[1] = tested on: Chl. pigment synthesis; test: Chlorophyll quantification in sprayed plants; assay type: in vivo, Rice (Oryza sativa var. Safari); details: treated versus control leaves
Description: Twenty one day old rice plants were sprayed with artemisinin twice at a 24 h interval. One mililiter of 74.4 mM artemisinin in 1% (V/V) DMSO, 0.1% (V/V) TWEEN-20 was diluted 100 fold with water and used to treat 40 plants (∼1.86 µmol of artemisinin/plant). Control plants were sprayed with the same solution without artemisinin. The 4th (quaternary) leaf was harvested 20 h after the 2nd spray and used for all experiments. The individual effect of the surfactant and DMSO-plus-surfactant was first evaluated against water control. Since no effect was obtained with these variations, we have routinely used the DMSO plus the surfactant sprayed leaves as control against artemisinin treated leaves and in figures the same has been depicted as DMSO (control). Thylakoids were isolated from spinach and rice leaves following with some modifications. Leaves were homogenized in cold grinding buffer [50 mM tricine-NaOH (pH 7.5), 400 mM sucrose, 5 mM MgCl2 and 5 mM KCl]. The homogenate was filtered through Miracloth and the filtrate was centrifuged at 5000×g for 5 min. […] Chlorophyll concentration in methanolic extract was measured spectrophotometrically. Supplementary file pone.0038942.s002.doc: Figure S2 Chlorophyll quantification in plants sprayed with DMSO and artemisinin. […]

[2] = tested on: PSI; test: PSI (DCIPH2 to MV) catalyzed electron flow in thylakoids isolated from leaves of sprayed plants; assay type: in vivo, Rice (Oryza sativa var. Safari); details: thylakoids of treated rice leaves
Description: (§1) Twenty one day old rice plants were sprayed with artemisinin twice at a 24 h interval. One mililiter of 74.4 mM artemisinin in 1% (V/V) DMSO, 0.1% (V/V) TWEEN-20 was diluted 100 fold with water and used to treat 40 plants (∼1.86 µmol of artemisinin/plant). Control plants were sprayed with the same solution without artemisinin. The 4th (quaternary) leaf was harvested 20 h after the 2nd spray and used for all experiments. The individual effect of the surfactant and DMSO-plus-surfactant was first evaluated against water control. […]
(§2) Thylakoids were isolated from spinach and rice leaves following with some modifications. […] Chlorophyll concentration in methanolic extract was measured spectrophotometrically.
(§3) Photosystem II, PSI and whole chain (PSII plus PSI) catalyzed electron transport activities were measured as oxygen (O2) evolution or uptake in a Clarke type O2 electrode assembly (Hansatech) at 22±1°C using site-specific artificial electron acceptors, donors, and inhibitors, [26]. […] Phosphorylating electron transport was measured with addition of 1 mM ADP and 5 mM K2HPO4 (iP) to basal electron transport components (25 mM hepes-NaOH (pH-7.5), 100 mM sucrose, 5 mM MgCl2 and 20 µg Chl. ml^−1). […]

[3] = tested on: lettuce and annual wormwood; design: method as in earlier work; details: 33 µM; cited from earlier work
[4] = tested on: rice leaves; test: Fast Chl. a (O-J-I-P) fluorescence transient in leaves of artemisinin sprayed plants; assay type: in vivo, Rice (Oryza sativa var. Safari)
Description: (§4) Twenty one day old rice plants were sprayed with artemisinin twice at a 24 h interval. One mililiter of 74.4 mM artemisinin in 1% (V/V) DMSO, 0.1% (V/V) TWEEN-20 was diluted 100 fold with water and used to treat 40 plants (∼1.86 µmol of artemisinin/plant). Control plants were sprayed with the same solution without artemisinin. The 4th (quaternary) leaf was harvested 20 h after the 2nd spray and used for all experiments. The individual effect of the surfactant and DMSO-plus-surfactant was first evaluated against water control. Since no effect was obtained with these variations, we have routinely used the DMSO plus the surfactant sprayed leaves as control against artemisinin treated leaves and in figures the same has been depicted as DMSO (control). The room temperature Chl. a fluorescence technique was used to study the photosynthetic activity in intact leaf samples. The fast Chl. a transients (O-J-I-P) in millisecond (ms) time span was studied with plant efficiency analyzer (Handy PEA fluorimeter) following Strasser et al., while the relative thylakoid electron transport, membrane energization and carbon fixation activities were evaluated from slow fluorescence transients, obtained using FMS2 instrument (Hansatech) as per the detail outlined in Baker. The readouts from Handy PEA were analyzed using biolyzerhp3 software.

[5] = tested on: whole chain (H2O to FeCN) electron flow in thylakoids; test: Whole chain (H2O to FeCN) electron flow in thylakoids isolated from leaves of sprayed plants; assay type: in vivo, Rice (Oryza sativa var. Safari)
Description: as §1, §2, §3

[6] = tested on: lettuce, redroot pigweed, pitted morning glory, annual wormwood and common purslane; design: method as in earlier work; details: 33 µM; cited from earlier work
[7] = tested on: yeast cells; design: method as in PMID 16170412; details: 80 µM; cited from earlier work
[8] = tested on: rice plant; test: Long term effect of artemisinin administration to rice plant; assay type: in vivo; details: 5 consecutive alternate day sprays
Description: Supplementary file pone.0038942.s005.doc: Figure S5 Long term effect of artemisinin administration to rice plant. The plants were treated with artemisinin for 5 consecutive alternate day sprays. […] (DOC) Click here for additional data file.

[9] = tested on: rice leaves; test: Slow Chl. a fluorescence kinetics in leaves of artemisinin sprayed plants; assay type: in vivo, Rice (Oryza sativa var. Safari); details: dark adapted 20 min
Description: as §4

[10] = biological target: T1, PSII (Oryza sativa subsp. japonica, UniProt P0C434); test: PSII (H2O to pBQ) catalyzed electron flow in thylakoids isolated from leaves of sprayed plants; assay type: in vivo, Rice (Oryza sativa var. Safari); details: thylakoids of treated rice leaves
T1 construct: Thylakoids were isolated from spinach and rice leaves; from tissue; host or cells: thylakoid membranes from the 4th leaf of 21-day-old rice plants
Description: as §1, §2, §3

[11] = tested on: PQH2 pool (PSII catalyzed electron flow from water to DQ); test: Kinetics of DQ supported electron transport rate in thylakoids from treated leaves; assay type: in vivo; details: control versus treated thylakoids
Description: as §1, §2, §3

[12] = tested on: spinach thylakoids; test: In vitro effect of artemisinin on FeCN supported O2 evolution (electron transport) of isolated thylakoids; assay type: biochemical, spinach (Beta palonga); details: for artemisinin-mediated inhibition of electron transport: 744 µM
Description: Thylakoids were isolated from spinach and rice leaves following with some modifications. Leaves were homogenized in cold grinding buffer [50 mM tricine-NaOH (pH 7.5), 400 mM sucrose, 5 mM MgCl2 and 5 mM KCl]. The homogenate was filtered through Miracloth and the filtrate was centrifuged at 5000×g for 5 min. The chloroplast pellet was washed in 5 mM tricine-NaOH (pH 7.5) buffer containing, 400 mM sucrose and 2 mM MgCl2 and centrifuged at 300×g for 1 min. The supernatant was re-centrifuged at 5000×g for 5 min. The pellet (thylakoids) was finally taken up in a minimal volume of suspending buffer [20 mM tricine-NaOH (pH 7.5), 100 mM sucrose and 5 mM MgCl2]. Chlorophyll concentration in methanolic extract was measured spectrophotometrically.
Photosystem II, PSI and whole chain (PSII plus PSI) catalyzed electron transport activities were measured as oxygen (O2) evolution or uptake in a Clarke type O2 electrode assembly (Hansatech) at 22±1°C using site-specific artificial electron acceptors, donors, and inhibitors, [26]. The light was rate-saturating (500 µE m^−2 s^−1). Phosphorylating electron transport was measured with addition of 1 mM ADP and 5 mM K2HPO4 (iP) to basal electron transport components (25 mM hepes-NaOH (pH-7.5), 100 mM sucrose, 5 mM MgCl2 and 20 µg Chl. ml^−1). NH4Cl and GS were used at a final concentration of 5 mM and 10 µM respectively as and when required. The whole chain electron flow was assayed in presence of 2 mM FeCN as terminal electron acceptor of PSI. pBQ and DQ (400 µM) were used to measure PSII catalyzed electron flow. To measure PSI catalyzed electron flow, DCIPH2 (1 mM DCIP plus 2 mM ascorbate) was used as electron donor to cytochrome b6/f region and 1 mM MV as transient electron acceptor. The PSI reaction mixture additionally contained 2 mM sodium azide (catalase inhibitor) and 10 µM DCMU (PSII inhibitor).

C[C@@H]1CC[C@H]2[C@@H](C)C(=O)O[C@@H]3O[C@@]4(C)CC[C@@H]1[C@]32OO4 [Artemisinin]
effect on Chl. pigment synthesis (Chl. concentration) [1]: no affect on the Chl. pigment synthesis
reduction of PSI catalyzed electron flow from DCIPH2 to MV as compared to control [2]: 10–15%
effect on germination [3]: inhibited the germination
effect on electron flow from water to QA ([4]; from DCMU (20 µM) sensitivity of the fluorescence induction curves): insensitive
effect on O-J-I-P fluorescence transient ([4]; leaves of sprayed rice plants): disappearance of the FI – FP transient
reduction of FeCN supported whole chain electron transport rate as compared to control ([5]; thylakoids of treated rice leaves (~1.86 µmol/plant)): 80–85%
inhibitory affect in loosely coupled (basal) versus chemically uncoupled (NH4Cl or GS) thylakoids ([5]; thylakoids of treated rice leaves, FeCN as acceptor): persistent to a comparable extent
effect on growth of roots and shoots [6]: inhibited
effect on growth of yeast cells [7]: arrests the growth
long term effect on plants [8]: death of plant; also recorded: complete death of the plants
Rfd (fluorescence decline ratio from 'p' to 't' level) [9]: 0.08±0.006
reduction in rate of pBQ supported PSII catalyzed electron transport [10]: 65–70%
DQ supported electron transport rate, times higher in the absence of artemisinin [11]: 5 times
inhibition of control activity (FeCN supported electron transport / O2 evolution) ([12]; 744 µM artemisinin, basal (loosely coupled) thylakoids, relative to DMSO control): 65–70%
artemisinin-mediated inhibition of electron transport ([12]; phosphorylating condition (plus ADP and iP)): 45–50%
artemisinin-mediated inhibition of electron transport ([12]; phosphorylating condition, in presence of NH4Cl): 15–20%
artemisinin-mediated inhibition of electron transport ([12]; phosphorylating condition, with GS): 20–25%
